We go through 15 molecules from patent US9796711B2, “Substituted pyrazolo[3,4-b]pyridin-6-carboxylic acids and method of use” (AbbVie S.àr.l., priority 2015, dated 2017).

Experiment [1] has as its target T1, ΔF508-CFTR (Homo sapiens, UniProt P13569, DEL508-508).
T1 construct: host or cells: CFBE41o-, doxycycline-inducible
Put plainly: CFTR cell surface levels using HRP-tagged ΔF508-CFTR expressing CFBE cells, in the presence of a co-corrector. Type of experiment: cell-based. The note with it: HRP-tagged ΔF508-CFTR expressing CFBE cells, in the presence of 3 μM co-corrector; for pEC50: read-out: EC50. An outline of the steps: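 Cells were seeded with 0.5 μg/mL doxycycline and held 68 h at 37 °C. Test compounds plus 3 μM co-corrector (final 0.1% DMSO) were then added for 20 h at 33 °C. Washed cells received HRP substrate, and luminescence was normalized between DMSO and 3 μM co-corrector controls.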

The target in experiment [2] is T1, ΔF508-CFTR. Put plainly: CFTR cell surface levels using HRP-tagged ΔF508-CFTR expressing CFBE cells, intrinsic corrector capacity. It counts as cell-based. Particulars: for pEC50: read-out: EC50. An outline of the steps: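 Here the cells express ΔF508-CFTR with horseradish peroxidase inserted in extracellular loop 4, so only rescued channel at the surface gives luminescent signal. Compounds act on their own, 20 h at the reduced temperature of 33 °C; values are percent activity relative to DMSO and a 3 μM corrector.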

Where [3] appears, read: HRP-tagged ΔF508-CFTR CFBE41o- cells, compounds alone (intrinsic corrector capacity), 20 hours at 33° C., positive control 3 μM corrector.
The mark [4] stands for this setting: HRP-tagged ΔF508-CFTR CFBE41o- cells, compounds alone (intrinsic corrector capacity), 20 hours at 33° C.
[5] abbreviates: HRP-tagged ΔF508-CFTR expressing CFBE cells, intrinsic corrector capacity (no co-corrector), 33° C., 20 hours.
[6] abbreviates: HRP-tagged ΔF508-CFTR CFBE cells, compound alone (intrinsic corrector capacity), 20 hours at 33° C.

pEC50: −log10 of the molar value.

T1 sequence (P13569 with tags, fused parts or gaps DEL508-508): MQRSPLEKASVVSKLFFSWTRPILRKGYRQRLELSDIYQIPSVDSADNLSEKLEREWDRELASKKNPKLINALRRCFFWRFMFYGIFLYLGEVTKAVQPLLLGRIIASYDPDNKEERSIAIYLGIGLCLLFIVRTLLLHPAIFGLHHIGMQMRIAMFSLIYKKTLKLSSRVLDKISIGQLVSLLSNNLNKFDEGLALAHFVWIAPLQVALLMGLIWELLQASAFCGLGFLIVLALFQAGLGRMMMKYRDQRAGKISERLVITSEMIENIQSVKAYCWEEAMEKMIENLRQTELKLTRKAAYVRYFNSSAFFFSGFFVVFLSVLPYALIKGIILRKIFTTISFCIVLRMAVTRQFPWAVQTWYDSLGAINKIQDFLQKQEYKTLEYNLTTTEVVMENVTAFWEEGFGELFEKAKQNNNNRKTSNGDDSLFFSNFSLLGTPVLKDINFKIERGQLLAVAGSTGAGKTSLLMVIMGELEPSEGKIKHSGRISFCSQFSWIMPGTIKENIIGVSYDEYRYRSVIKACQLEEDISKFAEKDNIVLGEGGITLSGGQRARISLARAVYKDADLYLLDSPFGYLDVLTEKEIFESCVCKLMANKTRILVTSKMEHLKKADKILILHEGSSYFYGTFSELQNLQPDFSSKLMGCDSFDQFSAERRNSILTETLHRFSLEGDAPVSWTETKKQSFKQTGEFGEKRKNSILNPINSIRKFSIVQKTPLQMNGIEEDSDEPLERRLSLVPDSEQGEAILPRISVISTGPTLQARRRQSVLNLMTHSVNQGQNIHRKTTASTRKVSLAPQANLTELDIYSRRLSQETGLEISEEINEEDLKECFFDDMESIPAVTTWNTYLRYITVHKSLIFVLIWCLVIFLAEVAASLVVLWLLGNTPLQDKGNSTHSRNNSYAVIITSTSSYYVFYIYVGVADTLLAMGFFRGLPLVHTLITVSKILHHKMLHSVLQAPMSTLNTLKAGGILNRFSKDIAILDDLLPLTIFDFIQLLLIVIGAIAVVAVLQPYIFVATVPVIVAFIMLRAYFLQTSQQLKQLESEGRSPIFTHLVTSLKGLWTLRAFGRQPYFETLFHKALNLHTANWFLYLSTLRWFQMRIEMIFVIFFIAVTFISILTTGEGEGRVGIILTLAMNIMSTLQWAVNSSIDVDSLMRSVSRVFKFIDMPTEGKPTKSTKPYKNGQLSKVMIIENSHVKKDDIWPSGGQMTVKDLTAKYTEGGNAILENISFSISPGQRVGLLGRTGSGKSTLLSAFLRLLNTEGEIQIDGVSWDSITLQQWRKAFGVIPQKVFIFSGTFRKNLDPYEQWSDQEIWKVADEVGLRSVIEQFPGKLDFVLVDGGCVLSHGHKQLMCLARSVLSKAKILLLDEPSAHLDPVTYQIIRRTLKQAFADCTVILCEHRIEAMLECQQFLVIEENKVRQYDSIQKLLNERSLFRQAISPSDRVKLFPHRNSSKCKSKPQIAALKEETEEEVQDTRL

With `Cc1cccc(-n2nc(C(C)C)c3c(N4CCC(C#N)CC4)cc(C(=O)O)nc32)c1` [compound 191, 4-(4-cyanopiperidin-1-yl)-1-(3-methylphenyl)-3-(propan-2-yl)-1H-pyrazolo[3,4-b]pyridine-6-carboxylic acid], the “% Activation” value on ΔF508-CFTR [1] was 375.1%; on ΔF508-CFTR [2] (setting [3]), 208.12%. In addition, the pEC50 at ΔF508-CFTR [1] was 6.32; at ΔF508-CFTR [2] (setting [4]), 6.00.
For the molecule `CC(C)OC(=O)N1CC[C@@H]2CN(c3cc(C(=O)O)nc4c3c(C3CCC3)nn4-c3ccccc3)CC[C@@H]21` (racemic) [compound 610, rac-3-cyclobutyl-1-phenyl-4-[(3aR,7aS)-1-{[(propan-2-yl)oxy]carbonyl}octahydro-5H-pyrrolo[3,2-c]pyridin-5-yl]-1H-pyrazolo[3,4-b]pyridine-6-carboxylic acid], the results for the “% Activation” value at ΔF508-CFTR [1] and on ΔF508-CFTR [2] (setting [5]) were 539.05% and 262.4%, respectively. For the same molecule, the pEC50 is 7.35 at ΔF508-CFTR [1] and 6.91 at ΔF508-CFTR [2] (setting [5]).
For `CC(C)c1nn(-c2ccnc(N3CCOCC3)c2)c2nc(C(=O)O)cc(-c3ccc(N4CCOCC4)cc3)c12` [compound 201, 4-[4-(morpholin-4-yl)phenyl]-1-[2-(morpholin-4-yl)pyridin-4-yl]-3-(propan-2-yl)-1H-pyrazolo[3,4-b]pyridine-6-carboxylic acid], the “% Activation” value on ΔF508-CFTR [1] is on record as 439.85%; at ΔF508-CFTR [2] (setting [3]), 251.3%. The pEC50 on ΔF508-CFTR [1] was 6.54; on ΔF508-CFTR [2] (setting [4]) it was 6.22.
In the case of `O=C(O)c1cc(N2CCC(N3CCOCC3)CC2)c2c(C3CCC3)nn(-c3ccc(F)cc3)c2n1` [compound 679, 3-cyclobutyl-1-(4-fluorophenyl)-4-[4-(morpholin-4-yl)piperidin-1-yl]-1H-pyrazolo[3,4-b]pyridine-6-carboxylic acid], the “% Activation” value at ΔF508-CFTR [1] was determined as 503.6%; on ΔF508-CFTR [2] (setting [5]) it was 279.5%. In addition, the pEC50 at ΔF508-CFTR [1] is 6.52; at ΔF508-CFTR [2] (setting [5]), 6.43.
The like results for `O=C(O)c1cc(N2CCC3(CC2)CCN(C2CCC2)CC3)c2c(C3CCC3)nn(-c3ccc(F)cc3)c2n1` [compound 894, 3-cyclobutyl-4-(9-cyclobutyl-3,9-diazaspiro[5.5]undecan-3-yl)-1-(4-fluorophenyl)-1H-pyrazolo[3,4-b]pyridine-6-carboxylic acid] were, in that order, 371.3%, 164%, 6.66 and 6.52.
Regarding `COCCN1CCC2(CC1)CCN(c1cc(C(=O)O)nc3c1c(C1CCC1)nn3-c1ccc(F)cc1)CC2` [compound 897, 3-cyclobutyl-1-(4-fluorophenyl)-4-[9-(2-methoxyethyl)-3,9-diazaspiro[5.5]undecan-3-yl]-1H-pyrazolo[3,4-b]pyridine-6-carboxylic acid], the results for the “% Activation” value at ΔF508-CFTR [1] and on ΔF508-CFTR [2] (setting [5]) were 354.93% and 151.25%, respectively. The pEC50 at ΔF508-CFTR [1] was 6.73; on ΔF508-CFTR [2] (setting [5]) it was 6.46.
With `CC(C)c1nn(-c2cccc(N3CCC3)c2)c2nc(C(=O)O)cc(-c3ccc(N4CCOCC4)cc3)c12` [compound 151, 1-[3-(azetidin-1-yl)phenyl]-4-[4-(morpholin-4-yl)phenyl]-3-(propan-2-yl)-1H-pyrazolo[3,4-b]pyridine-6-carboxylic acid], the “% Activation” value amounted to 562.6% at ΔF508-CFTR [1] and 322.03% on ΔF508-CFTR [2] (setting [3]). The results for the pEC50 at ΔF508-CFTR [1] and at ΔF508-CFTR [2] (setting [4]) were 6.19 and 6.45, respectively.
In the case of `CO[C@H]1CCC[C@@H](n2nc(C(C)C)c3c(-c4ccc(N5CCOCC5)cc4)cc(C(=O)O)nc32)C1` [compound 205, 1-[(1R,3S)-3-methoxycyclohexyl]-4-[4-(morpholin-4-yl)phenyl]-3-(propan-2-yl)-1H-pyrazolo[3,4-b]pyridine-6-carboxylic acid], the “% Activation” value on ΔF508-CFTR [1] is listed as 261.5%; on ΔF508-CFTR [2] (setting [3]) it was 109%. Besides, the pEC50 at ΔF508-CFTR [1] is 6.09; at ΔF508-CFTR [2] (setting [4]), 5.95.
Take `COC[C@H]1CCN(CC2CCN(c3cc(C(=O)O)nc4c3c(C3CCC3)nn4-c3ccccc3)CC2)C1` [compound 804, 3-cyclobutyl-4-(4-{[(3S)-3-(methoxymethyl)pyrrolidin-1-yl]methyl}piperidin-1-yl)-1-phenyl-1H-pyrazolo[3,4-b]pyridine-6-carboxylic acid]: on ΔF508-CFTR [1], the “% Activation” value is 365% and the pEC50 is 6.64. At ΔF508-CFTR [2] (setting [5]), the “% Activation” value is on record as 191.15% and the pEC50 was 6.31.
On to `CC(C)Oc1cccc(-n2nc(C3CCC3)c3c(N4CCC(N5CCOCC5)CC4)cc(C(=O)O)nc32)n1` [compound 924, 3-cyclobutyl-4-[4-(morpholin-4-yl)piperidin-1-yl]-1-{6-[(propan-2-yl)oxy]pyridin-2-yl}-1H-pyrazolo[3,4-b]pyridine-6-carboxylic acid], for which, at ΔF508-CFTR [1], the “% Activation” value stood at 609.82% and the pEC50 is 6.86. For the same molecule, on ΔF508-CFTR [2] (setting [6]), the “% Activation” value came to 374.45% and the pEC50 is 6.38.
On to `CC(C)c1nn(-c2ccc(F)cc2)c2nc(C(=O)O)cc(N3CCC(C(C)N4CCCC4)CC3)c12` (stereo not drawn) [compound 789, 1-(4-fluorophenyl)-3-(propan-2-yl)-4-{4-[1-(pyrrolidin-1-yl)ethyl]piperidin-1-yl}-1H-pyrazolo[3,4-b]pyridine-6-carboxylic acid], for which, at ΔF508-CFTR [1], the “% Activation” value amounted to 460.95% and the pEC50 was 6.04. On ΔF508-CFTR [2] (setting [5]), the “% Activation” value was found to be 257.05% and the pEC50 was 6.32.
The like results for `CC(C)c1nn(-c2ccc(F)cc2)c2nc(C(=O)O)cc(N3CCC(CN4CCCCC4)CC3)c12` [compound 790, 1-(4-fluorophenyl)-4-{4-[(piperidin-1-yl)methyl]piperidin-1-yl}-3-(propan-2-yl)-1H-pyrazolo[3,4-b]pyridine-6-carboxylic acid] were, in that order, 419.1%, 6.74, 193.7% and 6.53.
Turning to `COCCC1CCN(c2cc(C(=O)O)nc3c2c(C(C)C)nn3-c2cccc(C)c2)CC1` [compound 228, 4-[4-(2-methoxyethyl)piperidin-1-yl]-1-(3-methylphenyl)-3-(propan-2-yl)-1H-pyrazolo[3,4-b]pyridine-6-carboxylic acid], the “% Activation” value is 475.1% at ΔF508-CFTR [1] and 297.15% at ΔF508-CFTR [2] (setting [3]). The pEC50 on ΔF508-CFTR [1] is 6.40; at ΔF508-CFTR [2] (setting [4]), 6.17.
`CCOC(=O)N1CCN(c2cc(C(=O)O)nc3c2c(C2CCC2)nn3-c2ccccc2)CC1` [compound 539, 3-cyclobutyl-4-[4-(ethoxycarbonyl)piperazin-1-yl]-1-phenyl-1H-pyrazolo[3,4-b]pyridine-6-carboxylic acid]: on ΔF508-CFTR [1], the “% Activation” value is given as 564.8% and the pEC50 was 6.70. Also, at ΔF508-CFTR [2] (setting [5]), the “% Activation” value worked out at 366.3% and the pEC50 was 6.43.
As for `CC(C)c1nn(-c2cccc(N3CCOCC3)c2)c2nc(C(=O)O)cc(-c3cnc(N4CCC(C#N)CC4)nc3)c12` [compound 204, 4-[2-(4-cyanopiperidin-1-yl)pyrimidin-5-yl]-1-[3-(morpholin-4-yl)phenyl]-3-(propan-2-yl)-1H-pyrazolo[3,4-b]pyridine-6-carboxylic acid], the entries for the “% Activation” value at ΔF508-CFTR [1] and on ΔF508-CFTR [2] (setting [3]) were 589.7% and 402.1%, respectively. Besides, the pEC50 on ΔF508-CFTR [1] was 6.07; on ΔF508-CFTR [2] (setting [4]), 5.95.
